Values after ≈ are worked out from the molar mass of the structure shown.
Legend:
[1] = system: C. albicans CaCi-2; test: Secondary single-agent (no-fluconazole) activity assay; type: cell-based, Candida albicans; conditions: Candida albicans, CACI2; in the absence of fluconazole; read-out: Target Potency (μM) Mean ± S.E.M CaCi-2^b IC50
Procedure, shortened: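 C. albicans CaCi-2 in RPMI synthetic defined medium with 1% Pen/Strep, starting OD600 0.00015, exposed to compound alone (no fluconazole) for 48 h at 37 °C without agitation. Growth read as Alamar Blue fluorescence (1:200 final) after 2 h at room temperature.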

[2] = Plasma stability; conditions: % remaining in human plasma after a 5-hour incubation
[3] = system: C. albicans CaCi-8; test: microbe, parasite or virus in culture; type: cell-based, Candida albicans; conditions: read-out: Target Potency (μM) Mean ± S.E.M CaCi-8^a IC50; in the presence of fluconazole
Procedure, shortened: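 Hits tested for chemosensitization of the fluconazole-resistant CaCi-8 strain, for inherent antifungal activity without fluconazole, and for mammalian fibroblast toxicity by fluorescence reporter. Geldanamycin plus fluconazole served as positive control; a Saccharomyces assay assigned mechanism to Hsp90, calcineurin or other pathways.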

[4] = system: NIH-3T3 mammalian fibroblasts; test: Counterscreen mammalian cell toxicity assay (fibroblast toxicity); type: cell-based, murine; conditions: Mus musculus, NIH3T3; footnote: in the absence of fluconazole; read-out: Anti-target Potency (μM) Mean ± S.E.M Fibroblasts^b IC50
[5] = PBS solubility; conditions: aqueous buffer
[6] = Plasma protein binding; conditions: human, plasma
[7] = IC50 values and selectivity of Table 10A (target yeast, anti-target human cytochrome); type: biochemical
Method: (§1) All measurements were performed in triplicate.

[8] = molecular target: T1, yeast (Saccharomyces cerevisiae, UniProt P00163); test: as above; type: biochemical; conditions: target yeast, anti-target human cytochrome
T1 construct: Mitochondrial membranes were prepared from yeast; endogenous in cells; host or cells: yeast (mitochondrial membranes)
Method: as §1

[9] = system: fluconazole-susceptible C. albicans strain 90028; conditions: cited from earlier work
[10] = system: fluconazole-resistant C. albicans strain Gu5; conditions: cited from earlier work
[11] = system: fungus; conditions: cited from earlier work
[12] = system: Aspergillus terreus; test: Aspergillus terreus susceptibility test (CLSI M38-A2); type: cell-based
Method: Aspergillus terreus (A. terreus) susceptibility testing was performed as described in Clinical Laboratory Standards Institute document […]-A2 (CLSI […]-A2) (CLSI. Reference Method for Broth Dilution Antifungal Susceptibility Testing of Filamentous Fungi; Approved Standard-Second Edition. CLSI, 940 West Valley Road, Suite 1400, Wayne, Pa. 19087-1898 USA, 2003).

[13] = system: Saccharomyces cerevisiae strain W303-1a; test: In vivo inhibition of fungal respiration (growth on glycerol); type: cell-based; conditions: glycerol medium, 48 hours
Method: Saccharomyces cerevisiae (S. cerevisiae) strain W303-1a was grown overnight in Yeast-Peptone-Dextrose media, washed, and diluted into Yeast Nitrogen Base media with 2.5% glycerol containing compounds at a range of dilutions.

Row | SMILES | IC50 [1] [µM] | Plasma Stability [2] [%] | IC50 [3] [µM] | IC50 [4] [µM] | fraction unbound [6] | IC50 [7] [µM] | Selectivity* (anti-target IC50)/(target IC50) [8] | solubility ([5]; PBS) [µM] | further results
1 | CCOC(=O)c1nn(Cc2ccc(Cl)cc2)c2ccccc12 [Compound 12312246] | > 26 | 93 | > 26 | > 6 | < 0.01 |  |  |  | solubility [5]: < 0.1 µM
2 | COC(=O)Cn1nc(-c2ccccc2)c2cccc(C)c21 [Compound I-82] |  |  |  |  |  | 0.125 | 40 |  | 
3 | Cc1cccc2c(-c3cc(C(F)(F)F)ccc3F)nn(Cc3nnn(C)n3)c12 [Compound I-99] |  |  |  |  |  | 0.023 | 160 |  | 
4 | c1ccc(-c2nn(Cc3nn[nH]n3)c3ccccc23)cc1 [Compound I-87] |  |  |  |  |  | > 160 |  |  | 
5 | c1ccc(-c2nn(Cc3cnccn3)c3ccccc23)cc1 [Compound I-115] |  |  |  |  |  | 0.63 | 128 |  | 
6 | CCCNC(=O)Cn1nc(-c2ccccc2)c2cc(Cl)ccc21 [Compound 20877322] | > 26 | 97 | > 26 | > 6 | < 0.01 |  |  | < 1 | 
7 | COC(=O)Cn1nc(-c2cccc(OCc3ccccc3)c2F)c2ccccc21 [Compound I-134] |  |  |  |  |  | 0.2 | 20 |  | 
8 | COC(=O)Cn1nc(-c2cccc(C#N)c2)c2ccccc21 [Compound I-118] |  |  |  |  |  | 1.25 | 96 |  | 
9 | FC(F)(F)c1ccc(-c2n[nH]c3ccccc23)cc1 [Compound 49635869] | > 26 | 79 | > 26 | > 6 | < 0.01 |  |  | < 1 | 
10 | COC(=O)Cn1nc(-c2ccccn2)c2ccccc21 [Compound I-120] |  |  |  |  |  | 15 |  |  | 
11 | O=C(O)Cn1nc(-c2ccccc2)c2ccccc21 [Compound I-107] |  |  |  |  |  | > 120 |  |  | 
12 | O=C(Cn1nc(-c2ccccc2)c2cc(Cl)ccc21)N1CCOCC1 [Compound 20877381] | > 26 | 99 | > 26 | > 6 | 0.04 |  |  | 8 (≈ 2.85 µg/mL) | 
13 | O=C(Cn1nc(C(=O)N2CCCCC2)c2ccccc21)N1CCOCC1 [Compound 46378661] | > 26 | > 99 | > 26 | > 6 | 0.48 |  |  | 529 (≈ 189 µg/mL) | 
14 | Cc1cc(Cn2nc(-c3ccccc3)c3ccccc32)on1 [Compound I-92] |  |  |  |  |  | 30 | >5 |  | 
15 | COC(=O)Cn1nc(-c2cccc([N+](=O)[O-])c2)c2ccccc21 [Compound I-119] |  |  |  |  |  | 0.5 | 160 |  | 
16 | COC(=O)Cn1nc(-c2cccc(OCc3ccccc3)c2)c2ccccc21 [Compound I-140] |  |  |  |  |  | 0.4 | 8 |  | 
17 | Clc1ccc2c(c1)nnc1nnnn12 [CTBT, 7-chlorotetrazolo[5,1-c]benzo[1,2,4]triazine] |  |  |  |  |  |  |  |  | Activity in the absence of fluconazole [9]: no activity; MIC when combined with fluconazole [9]: 2.4 µM; Concentrations inhibiting growth in the absence of fluconazole [10]: greater than 2.4 μM; MIC when combined with fluconazole [10]: 2.4 µM
18 | COc1ccc(-c2n[nH]c3ccccc23)cc1 [Compound 9855970] | > 26 | 89 | > 26 | > 6 | 0.02 |  |  | < 1 | 

Row | SMILES | IC50 [1] [µM] | Plasma Stability [2] [%] | IC50 [3] [µM] | IC50 [4] [µM] | fraction unbound [6] | IC50 [7] [µM] | Selectivity* (anti-target IC50)/(target IC50) [8] | solubility ([5]; PBS) [µM] | further results
19 | COC(=O)Cn1nc(-c2ccccc2)c2ccccc21 [Compound I-96] |  |  |  |  |  | 0.6 |  |  | 
20 | COC(=O)Cn1c(-c2ccccc2)nc2ccccc21 [Compound 4131200] | > 26 | 46 | > 26 | > 6 | 0.05 |  |  | 438 (≈ 117 µg/mL) | 
21 | Cc1nn(S(C)(=O)=O)c2ccccc12 [Compound 46856251] | > 26 | > 99 | > 26 | > 6 | 0.37 |  |  | 494 (≈ 104 µg/mL) | 
22 | CCOC(=O)c1c2ccccc2nn1Cc1ccc(Cl)cc1 [Compound 46856252] | > 26 | 70 | > 26 | > 6 | < 0.01 |  |  | < 1 | 
23 | CCCCc1oc2ccccc2c1C(=O)c1cc(I)c(OCCN(CC)CC)c(I)c1 [amiodarone] |  |  |  |  |  |  |  |  | MIC50, single-agent antifungal activity [11]: 3.1 µM (≈ 2 µg/mL)
24 | CNC(=O)Cn1nc(-c2ccccc2)c2ccccc21 [Compound I-75] |  |  |  |  |  | > 80 |  |  | 
25 | COC(=O)Cn1nc(-c2ccccc2)c2cccc(C(F)(F)F)c21 [Compound 49835842] | > 26 | 50 | > 26 | > 6 | < 0.01 |  |  | < 1 | 
26 | c1ccc(-c2nn(Cc3nnco3)c3ccccc23)cc1 [Compound I-74] |  |  |  |  |  | 3 | 53 |  | 
27 | O=C(O)c1c2ccccc2nn1Cc1ccc(Cl)cc1 [Compound 14420592] | > 26 | 96 | > 26 | > 6 | < 0.01 |  |  | 503 (≈ 144 µg/mL) | 
28 | COC(=O)Cn1nc(-c2cccc(OCc3ccccc3)c2)c2ccccc21 [Compound I-7] |  |  |  |  |  |  |  |  | Inhibitory activity against A. terreus [12]: shows inhibitory activity; Inhibitory activity against S. cerevisiae (respiratory growth) [13]: shows inhibitory activity
29 | Cn1nnc(Cn2nc(-c3cc(OCCCC4CCCCC4)ccc3F)c3ccccc32)n1 [Compound I-102] |  |  |  |  |  | 0.046 | 16 |  | 
30 | Brc1cccnc1Cn1nc(-c2ccccc2)c2ccccc21 [Compound I-113] |  |  |  |  |  | > 120 |  |  | 
31 | COC(=O)Cn1nc(-c2cccc(OCCCC3CCCCC3)c2)c2ccccc21 [Compound I-78] |  |  |  |  |  | 0.01 | 100 |  | 
32 | O=C(O)c1nn(Cc2ccc(Cl)cc2)c2ccccc12 [Compound 100493] | > 26 | > 99 | > 26 | > 6 | < 0.01 |  |  | 516 (≈ 148 µg/mL) | 
33 | COC(=O)Cn1nc(-c2cccc(OCCC(C)(C)C)c2)c2ccccc21 [Compound I-79] |  |  |  |  |  | 0.04 | 50 |  | 
34 | COC(=O)Cn1nc(-c2cc(OCc3ccccc3)ccc2F)c2ccccc21 [Compound I-136] |  |  |  |  |  | 0.06 | 8.3 |  | 
35 | COC(=O)Cn1nc(-c2ccsc2)c2ccccc21 [Compound I-77] |  |  |  |  |  | 0.625 | 48 |  | 

Reference: patent publication US9738610B2, “Indazole derivatives and uses thereof” (Whitehead Institute for Biomedical Research, priority 2012, dated 2017)
